Measurements published in PubChem BioAssay (NCI).
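Test compounds were applied to cells in 96-well plates for 48 hours at 5 doses. The concentration for 50% growth inhibition is given as GI50. The concentration for full growth arrest is given as TGI.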

Assays:
Experiment in all cases: DTP human tumour cell line panel, 48 h
ACHN renal = tested on: ACHN renal
CAKI-1 renal = tested on: CAKI-1 renal
HCT-15 colon = tested on: HCT-15 colon
HOP-92 NSCLC = tested on: HOP-92 NSCLC
KM12 colon = tested on: KM12 colon
M14 melanoma = tested on: M14 melanoma
RPMI-8226 leukemia = tested on: RPMI-8226 leukemia
SK-OV-3 ovarian = tested on: SK-OV-3 ovarian
UACC-257 melanoma = tested on: UACC-257 melanoma
A549 NSCLC = tested on: A549 NSCLC

| Structure (SMILES) | TGI (ACHN renal) [µM] | TGI (CAKI-1 renal) [µM] | TGI (HCT-15 colon) [µM] | TGI (HOP-92 NSCLC) [µM] | TGI (KM12 colon) [µM] | TGI (M14 melanoma) [µM] | TGI (RPMI-8226 leukemia) [µM] | TGI (SK-OV-3 ovarian) [µM] | TGI (UACC-257 melanoma) [µM] | TGI (A549 NSCLC) [µM] | GI50 (A549 NSCLC) [µM] | GI50 (ACHN renal) [µM] | GI50 (CAKI-1 renal) [µM] | GI50 (HCT-15 colon) [µM] | GI50 (HOP-92 NSCLC) [µM] | GI50 (KM12 colon) [µM] | GI50 (M14 melanoma) [µM] | GI50 (RPMI-8226 leukemia) [µM] | GI50 (SK-OV-3 ovarian) [µM] | GI50 (UACC-257 melanoma) [µM] |
| --- | --- | --- | --- | --- | --- | --- | --- | --- | --- | --- | --- | --- | --- | --- | --- | --- | --- | --- | --- | --- |
| NC(=S)N/N=C1/C(=O)N(c2ccc(Cl)cc2Cl)C(=O)C(=O)C1c1nc2ccccc2s1 (configuration not stated) | > 100 | > 100 | > 100 | > 100 | > 100 | > 100 | > 100 | > 100 | > 100 | – | – | – | – | – | – | – | – | – | – | – |
| O=C1CCC2(CC1)SCCCS2 | > 100 | > 100 | > 100 | > 100 | > 100 | > 100 | > 100 | > 100 | > 100 | > 100 | – | – | – | – | – | – | – | – | – | – |
| Cc1cc(O)cc2c1O[C@@]1(C)CCC3[C@@]4(C)CC[C@H](O)C(C)(C)C4CC[C@@]3(C)[C@H]1C2 (some centres not stated) | 19 | 20.6 | 12.7 | 9.78 | 21.4 | 24.3 | 5.07 | 12.5 | 29.2 | 19.6 | – | – | – | – | – | – | – | – | – | – |
| Cc1cc(Cl)cc2c1NC(=O)C2(O)C(C)C(=O)c1ccc(Cl)cc1 (configuration not stated) | > 100 | > 100 | > 100 | > 100 | > 100 | > 100 | 98.2 | > 100 | > 66.2 | > 100 | – | – | – | – | – | – | – | – | – | – |
| CCOC(=O)/C(=C/c1ccc(C#N)cc1)N(CC)CC | > 100 | > 100 | > 100 | > 100 | > 100 | > 100 | > 100 | > 100 | > 100 | > 100 | – | – | – | – | – | – | – | – | – | – |
| COc1cc(/C=C2\COc3ccc(O)c(O)c3C2=O)cc(OC)c1 | 3.74 | 3.04 | 10.8 | 6.08 | 3.58 | 4.55 | 4.17 | 17.3 | 4.97 | 12.1 | 2.16 | 1.54 | 1.27 | 0.483 | 1.96 | 1.54 | 1.56 | 0.558 | 4.57 | 1.79 |
| NCc1nnn(Cc2ccccc2)c1N | > 100 | > 100 | > 100 | > 100 | > 100 | > 100 | > 100 | > 100 | > 100 | > 100 | – | – | – | – | – | – | – | – | – | – |
| COc1ccc(C(c2c(O)c3ccccc3n(C)c2=O)c2c(O)c3ccccc3n(C)c2=O)cc1 | > 100 | > 100 | – | > 100 | > 100 | > 100 | > 100 | > 100 | 46.4 | > 100 | – | – | – | – | – | – | – | – | – | – |
| CN(C)CCCc1c[nH]c2ccccc12 | > 100 | > 100 | > 100 | > 100 | > 100 | > 100 | > 100 | > 100 | > 100 | > 100 | – | – | – | – | – | – | – | – | – | – |
| CS(=O)(=O)Nc1ccc(Nc2c3ccccc3nc3ccccc23)cc1 | 2.69 | 6.94 | 23.5 | 24.2 | 24.7 | 17.5 | 31 | 16.1 | 8.44 | 10.1 | – | – | – | – | – | – | – | – | – | – |
| COc1ccc2nc3ccccc3c(NCCCCCCN(C)CCCl)c2c1 | 2.36 | 3.19 | 2.01 | 1.33 | 1.44 | 2.3 | 1.19 | 2.04 | 3.19 | 3.34 | – | – | – | – | – | – | – | – | – | – |
| Nc1c(C(=O)Nc2ccccc2Cl)sc2nc3c(cc12)CCCCCC3 | 4.86 | > 100 | > 100 | 6.54 | > 100 | 95.1 | > 100 | 7.88 | > 100 | 73.2 | 4.54 | 2.17 | 3.74 | 1.59 | 1.77 | 3.67 | 2.25 | > 100 | 2.65 | 11.1 |
| COc1ccc2c(c1)CCC1C2CC[C@]2(C)/C(=N/OC(=O)Cc3ccccc3)CCC12 (some centres not stated) | 32 | 30.9 | 36.3 | 81 | 30.4 | 32.9 | 52.5 | 72.1 | 38.4 | 42.7 | 19.3 | 16.4 | 16 | 18 | 25.2 | 15 | 16.8 | 12.4 | 28.7 | 18.7 |
| CCC(=C/[C@H](C)C/C=C/C(C)=C/[C@@H](C)C(=O)[C@@H](C)[C@H](O)[C@@H](C)CC)/C=C/[C@H]1OC(=O)C=C[C@H]1C | 1.37 | 1.8 | 1.17 | 0.722 | 0.113 | 0.132 | 0.0421 | 3.44 | 1.55 | 1.93 | < 0.01 | < 0.01 | < 0.01 | < 0.01 | < 0.01 | < 0.01 | < 0.01 | < 0.01 | < 0.0221 | < 0.01 |
| COc1cc2nc(Nc3cccc(F)c3)nc(Nc3cc(C)[nH]n3)c2cc1OC | 3.17 | 3.19 | 2.72 | 3.21 | 3.32 | 3.22 | 5.6 | 3.37 | 3.64 | – | – | 1.78 | 1.76 | 1.22 | 1.67 | 1.64 | 1.64 | 1.69 | 1.86 | 1.87 |
| Cc1nc(NC(=O)CCCN2C(=O)c3cccc4cccc(c34)C2=O)sc1C(=O)Nc1cc(C(=O)NCCCN(C)C)n(C)c1 | > 100 | > 100 | > 100 | > 100 | > 100 | > 100 | > 100 | > 100 | – | > 100 | > 100 | > 100 | > 100 | > 100 | > 100 | > 100 | > 100 | > 100 | > 100 | – |
| COC1=CC(c2ccc[nH]2)=N/C1=C\c1[nH]c(C)c(C(=O)CCCCC(=O)Nc2ccccc2)c1C | 24 | 11.9 | 2.44 | 3.37 | 2.3 | 4.51 | 1.82 | 40.1 | 34 | – | – | 10.3 | 4.75 | 0.679 | 1.4 | 1.03 | 2.01 | 0.142 | 18.3 | 12.2 |
